According to patent publication US6593335B1, “Potassium channel openers” (Abbott Laboratories, priority 1997, dated 2003):
pEC50: −log10 of the molar value. “And” between values parts separate entries of the source, which are not always exact repeats. Equal entries are not always repeated.

Experiments:
[1] = target: potassium channels (Cavia porcellus, UniProt A0A286XYR9); experiment: Membrane hyperpolarization (MHP) assay in primary cultured guinea-pig urinary bladder (GPB) cells, DiBAC(4)3 FLIPR; type: cell-based; conditions: for MHP in GPB Cells Maximal Response (% P1075): maximal steady-state hyperpolarization relative to reference P1075 (assigned as 100%); for pEC50: concentration that elicits 50% of the maximal response for the test sample
Sequence of potassium channels (Cavia porcellus, UniProt A0A286XYR9) (A0A286XYR9 1-1546): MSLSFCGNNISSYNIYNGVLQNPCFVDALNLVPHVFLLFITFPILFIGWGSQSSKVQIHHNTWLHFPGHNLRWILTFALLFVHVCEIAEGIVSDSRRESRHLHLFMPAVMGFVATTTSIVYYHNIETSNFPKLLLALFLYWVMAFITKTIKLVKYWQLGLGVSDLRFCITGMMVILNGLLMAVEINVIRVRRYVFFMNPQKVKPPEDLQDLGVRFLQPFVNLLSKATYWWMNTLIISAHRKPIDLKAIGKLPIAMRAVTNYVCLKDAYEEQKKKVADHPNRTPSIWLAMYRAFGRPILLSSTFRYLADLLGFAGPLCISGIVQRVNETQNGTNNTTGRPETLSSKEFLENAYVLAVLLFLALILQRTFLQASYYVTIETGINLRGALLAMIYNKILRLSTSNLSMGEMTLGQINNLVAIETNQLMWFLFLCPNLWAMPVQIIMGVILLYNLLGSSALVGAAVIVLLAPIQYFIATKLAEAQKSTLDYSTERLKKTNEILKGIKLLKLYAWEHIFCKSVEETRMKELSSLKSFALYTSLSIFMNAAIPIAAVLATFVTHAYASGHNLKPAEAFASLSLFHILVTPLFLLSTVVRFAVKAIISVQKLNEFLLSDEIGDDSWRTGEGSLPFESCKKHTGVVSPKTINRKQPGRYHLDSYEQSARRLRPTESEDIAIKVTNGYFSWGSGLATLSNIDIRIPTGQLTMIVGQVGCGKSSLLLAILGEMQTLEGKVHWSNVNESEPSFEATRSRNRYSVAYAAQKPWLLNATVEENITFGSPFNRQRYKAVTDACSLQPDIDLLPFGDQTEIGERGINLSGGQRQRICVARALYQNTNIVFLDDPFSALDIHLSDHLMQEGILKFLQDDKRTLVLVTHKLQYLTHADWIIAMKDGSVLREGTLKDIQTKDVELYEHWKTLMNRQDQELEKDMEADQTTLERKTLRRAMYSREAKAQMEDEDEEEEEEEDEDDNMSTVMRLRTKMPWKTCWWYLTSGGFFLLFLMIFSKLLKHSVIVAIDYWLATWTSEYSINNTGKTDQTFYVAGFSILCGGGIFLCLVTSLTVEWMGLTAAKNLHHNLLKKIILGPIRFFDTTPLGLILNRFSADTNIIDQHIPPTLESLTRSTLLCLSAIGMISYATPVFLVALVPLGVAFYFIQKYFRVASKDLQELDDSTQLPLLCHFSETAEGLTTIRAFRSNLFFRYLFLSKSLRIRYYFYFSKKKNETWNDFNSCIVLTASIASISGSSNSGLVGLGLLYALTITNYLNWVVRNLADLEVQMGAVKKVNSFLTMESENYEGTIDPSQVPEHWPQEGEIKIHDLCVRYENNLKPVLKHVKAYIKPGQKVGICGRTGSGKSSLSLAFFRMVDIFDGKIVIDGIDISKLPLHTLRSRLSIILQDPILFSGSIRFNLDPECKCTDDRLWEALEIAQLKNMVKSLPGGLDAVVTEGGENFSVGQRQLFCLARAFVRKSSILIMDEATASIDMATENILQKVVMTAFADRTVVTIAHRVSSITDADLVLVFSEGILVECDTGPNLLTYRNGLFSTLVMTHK
Sequence of potassium channels (Cavia porcellus, UniProt A0A286XYR9) (Q9JHJ9 whole entry partner): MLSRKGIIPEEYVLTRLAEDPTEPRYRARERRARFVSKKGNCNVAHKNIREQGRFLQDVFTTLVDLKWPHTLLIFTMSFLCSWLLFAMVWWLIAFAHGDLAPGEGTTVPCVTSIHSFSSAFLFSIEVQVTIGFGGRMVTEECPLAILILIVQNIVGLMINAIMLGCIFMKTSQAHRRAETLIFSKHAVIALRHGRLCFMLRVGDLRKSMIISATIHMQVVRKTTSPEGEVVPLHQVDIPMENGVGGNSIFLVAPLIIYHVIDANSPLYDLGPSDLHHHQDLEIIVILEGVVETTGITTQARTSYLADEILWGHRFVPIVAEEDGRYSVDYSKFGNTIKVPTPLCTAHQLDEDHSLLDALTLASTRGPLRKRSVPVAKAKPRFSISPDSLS
Protocol: Determination of Potassium Channel Opening Activity Membrane Hyperpolarization Assays Compounds were evaluated for potassium channel opening activity using the rat thoracic aorta smooth muscle AI 0 cell line or primary cultured guinea-pig urinary bladder (GPB) cells. The AI0 cell line was purchased from the American Type Culture Collection (Rockville, MD; Cat # 30-2002). […] Louis, MO) and 0.2 mg/mL ronase (Calbiochem, La Jolla, CA) with continuous stirring in a cell incubator for 30 minutes. The mixture was then centrifuged at 1300 x g for 5 minutes, and the pellet resuspended in Dulbecco's PBS (GIBCO, Gaithersburg, MD) and recentrifuged to remove residual enzyme. […] Cells were confirmed to be of smooth muscle type by cytoskeletal staining using a monoclonal mouse anti human-a-smooth muscle actin (Biomeda, Foster City, CA). Functional activity at potassium channels was measured by evaluating changes in membrane potential using the bis-oxonol dye DiBAC(4)3 (Molecular Probes) in a 96-well cell-based kinetic assay system, Fluorescent Imaging Plate Reader (FLIPR) (K.S. Schroeder et al., J. Biomed. Screen., v. I pp. 75-81 (1996)). DiBAC(4)3 is an anionic potentiometric probe which partitions between cells and extracellular solution in a membrane potential-dependent manner. With increasing membrane potential (for example, K+depolarization), the probe further partitions into the cell; this is measured as an increase in fluorescence due to dye interaction with intracellular lipids and proteins. Conyersely, decreasing membrane potential (hyperpolarization by potassium channel openers) evokes a decrease in fluorescence. […] HEPES, 20; NaCl, 120; KCl, 2; CaC'2, 2; MgCl2, 1; glucose, 5; pH 7.4 at 25 ° C.) containing 5 µM DiBAC(4)3 and incubated with […] of the buffer in a cell incubator for 30 minutes at 37 OC to ensure dye distribution across the membrane. After recording the baseline fluorescence for 5 minutes, the reference or test compounds, prepared at 10 times the concentration in the assay buffer, were added directly to the wells. Changes in fluorescence were monitored for an additional 25 minutes. […] Pharmacol., v. 43 pp. 474-481 (1993)). Routinely, five concentrations of […] or test compounds (log or half-log dilutions) were evaluated and the maximal steady-state hyperpolarization values (expressed as % relative to […]) plotted as a function of concentration. […] The maximal response of each compound (expressed as % relative to […]) is reported.

[2] = target: potassium channels (Sus scrofa, UniProt F1SR11); experiment: Functional potassium channel opening activity in isolated Landrace pig bladder strips (field-stimulated twitch); conditions: for Landrace Pig Bladder Index: ED50 for P1075 divided by ED50 for the test agonist, averaged over tissues; for Landrace Pig Bladder pD2: negative logarithm of ED50
Summary of the method: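 Landrace pig bladder strips with the mucosa removed were field-stimulated (0.05 Hz, 0.5 ms, 20 V) in Krebs Ringer bicarbonate containing propranolol, and primed with 80 mM KCl. Cumulative concentration-response curves gave maximal efficacy relative to a reference potassium channel opener, pD2, and a potency index (reference ED50/test ED50) averaged across tissues.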

[3] = target: potassium channels (Rattus norvegicus, UniProt Q63563); experiment: Membrane hyperpolarization (MHP) assay in A10 cells, DiBAC(4)3 FLIPR; type: cell-based; conditions: for pEC50: concentration that elicits 50% of the maximal response for the test sample; for MHP in A10 Cells Maximal Response (% P1075): maximal steady-state hyperpolarization relative to reference P1075 (assigned as 100%)
Sequence of potassium channels (Rattus norvegicus, UniProt Q63563) (Q63563 whole entry): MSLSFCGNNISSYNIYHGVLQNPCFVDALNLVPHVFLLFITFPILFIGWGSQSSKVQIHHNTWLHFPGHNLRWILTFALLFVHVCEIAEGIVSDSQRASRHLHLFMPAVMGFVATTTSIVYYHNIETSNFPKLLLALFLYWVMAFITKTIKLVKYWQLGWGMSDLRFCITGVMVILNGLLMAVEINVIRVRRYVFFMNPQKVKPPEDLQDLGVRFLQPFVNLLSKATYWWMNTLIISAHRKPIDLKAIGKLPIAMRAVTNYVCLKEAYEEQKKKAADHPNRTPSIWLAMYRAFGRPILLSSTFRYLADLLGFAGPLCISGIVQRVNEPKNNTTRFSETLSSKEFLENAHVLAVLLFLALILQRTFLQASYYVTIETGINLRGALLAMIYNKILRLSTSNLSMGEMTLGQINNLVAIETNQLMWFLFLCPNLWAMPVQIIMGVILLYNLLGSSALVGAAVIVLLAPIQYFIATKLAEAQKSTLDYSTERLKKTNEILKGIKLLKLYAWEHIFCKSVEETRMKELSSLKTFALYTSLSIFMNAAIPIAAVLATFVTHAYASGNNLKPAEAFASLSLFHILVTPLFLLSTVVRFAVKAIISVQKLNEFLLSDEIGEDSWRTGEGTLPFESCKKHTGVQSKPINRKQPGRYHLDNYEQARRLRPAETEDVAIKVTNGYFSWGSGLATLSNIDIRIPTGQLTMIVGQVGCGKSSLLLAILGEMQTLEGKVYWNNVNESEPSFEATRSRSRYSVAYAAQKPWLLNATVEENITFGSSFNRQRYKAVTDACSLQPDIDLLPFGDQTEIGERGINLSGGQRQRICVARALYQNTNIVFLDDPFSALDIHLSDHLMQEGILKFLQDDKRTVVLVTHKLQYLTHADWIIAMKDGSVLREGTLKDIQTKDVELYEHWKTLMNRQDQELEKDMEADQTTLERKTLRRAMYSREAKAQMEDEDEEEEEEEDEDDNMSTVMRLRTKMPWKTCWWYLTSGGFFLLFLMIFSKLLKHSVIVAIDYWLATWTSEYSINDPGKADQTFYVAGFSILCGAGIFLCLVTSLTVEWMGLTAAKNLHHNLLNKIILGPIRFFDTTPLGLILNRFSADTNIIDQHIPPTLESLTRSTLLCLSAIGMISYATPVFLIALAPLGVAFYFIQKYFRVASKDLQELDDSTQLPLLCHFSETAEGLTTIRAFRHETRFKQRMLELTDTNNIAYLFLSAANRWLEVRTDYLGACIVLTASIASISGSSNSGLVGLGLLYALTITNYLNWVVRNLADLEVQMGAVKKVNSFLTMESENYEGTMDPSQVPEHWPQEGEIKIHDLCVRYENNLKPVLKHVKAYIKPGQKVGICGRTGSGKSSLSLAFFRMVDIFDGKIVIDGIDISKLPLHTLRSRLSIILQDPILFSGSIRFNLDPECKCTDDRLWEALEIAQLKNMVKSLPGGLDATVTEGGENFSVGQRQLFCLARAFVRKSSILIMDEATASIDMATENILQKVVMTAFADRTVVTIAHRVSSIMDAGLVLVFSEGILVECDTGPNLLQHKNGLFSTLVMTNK
Sequence of potassium channels (Rattus norvegicus, UniProt Q63563) (Q63664 whole entry partner): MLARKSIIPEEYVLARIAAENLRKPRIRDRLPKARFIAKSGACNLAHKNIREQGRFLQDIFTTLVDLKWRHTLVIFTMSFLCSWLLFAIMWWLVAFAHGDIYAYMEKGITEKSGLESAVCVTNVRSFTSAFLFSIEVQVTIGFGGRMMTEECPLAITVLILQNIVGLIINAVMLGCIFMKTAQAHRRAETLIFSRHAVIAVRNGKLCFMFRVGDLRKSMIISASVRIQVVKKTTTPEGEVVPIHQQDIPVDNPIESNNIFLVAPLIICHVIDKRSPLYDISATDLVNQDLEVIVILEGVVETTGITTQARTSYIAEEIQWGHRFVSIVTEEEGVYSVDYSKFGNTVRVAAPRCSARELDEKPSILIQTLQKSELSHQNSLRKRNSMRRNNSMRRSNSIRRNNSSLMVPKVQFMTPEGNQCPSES
Protocol: Determination of Potassium Channel Opening Activity Membrane Hyperpolarization Assays Compounds were evaluated for potassium channel opening activity using the rat thoracic aorta smooth muscle AI 0 cell line or primary cultured guinea-pig urinary bladder (GPB) cells.
The AI0 cell line was purchased from the American Type Culture Collection (Rockville, MD; Cat # 30-2002). Cells were grown in 96-well clear-bottomed black plates (Packard) in culture media (composition: Dulbecco′s modified Eagle′s medium supplemented with 20% Fetal Bovine Serum, 100 units/mL penicillin, 100 units/mL streptomycin and 0.25 […]) at 37 ° C. with 5% C02 in a humidified chamber to form a confluent monolayer. 25 For the preparation of urinary bladder smooth muscle cells, urinary bladders were removed from male guinea-pigs (Hartley, Charles River, Wilmington, MA) weighing 300-400 g and placed in ice-cold Ca^2+-free Krebs solution (Composition, mM: KCl, 2.7; KH2PO4, 1.5; NaCl, 75; Na2HPO4, 9.6; Na2HPO4.7H2O, 8; MgSO4, 2; glucose, 5;HEPES, 10; pH 7.4). Cells were isolated by enzymatic dissociation as previously escribed with minor modifications (Klockner, U. and Isenberg, G., Pflugers Arch. 1985, 05, 329-339). The bladder was cut into small sections and incubated in 5 mL of the reb′s solution containing I mg/mL collagenase (Sigma, St. Louis, MO) and 0.2 mg/mL ronase (Calbiochem, La Jolla, CA) with continuous stirring in a cell incubator for 30 minutes. […]
Functional activity at potassium channels was measured by evaluating changes in membrane potential using the bis-oxonol dye DiBAC(4)3 (Molecular Probes) in a 96-well cell-based kinetic assay system, Fluorescent Imaging Plate Reader (FLIPR) (K.S. Schroeder et al., J. Biomed. Screen., v. I pp. 75-81 (1996)). […] With increasing membrane potential (for example, K+depolarization), the probe further partitions into the cell; this is measured as an increase in fluorescence due to dye interaction with intracellular lipids and proteins.
Conyersely, decreasing membrane potential (hyperpolarization by potassium channel openers) evokes a decrease in fluorescence.
Confluent smooth muscle A10 or guinea-pig urinary bladder cells cultured in black clear-bottomed 96-well plates were rinsed twice with […] assay buffer (composition, mM: HEPES, 20; NaCl, 120; KCl, 2; CaC′2, 2; MgCl2, 1; glucose, 5; pH 7.4 at 25 ° C.) containing 5 µM DiBAC(4)3 and incubated with […] of the buffer in a cell incubator for 30 minutes at 37 OC to ensure dye distribution across the membrane. After recording the baseline fluorescence for 5 minutes, the reference or test compounds, prepared at 10 times the concentration in the assay buffer, were added directly to the wells. Changes in fluorescence were monitored for an additional 25 minutes. […]

[4] = target: potassium channels (Homo sapiens, UniProt O60706); experiment: Functional potassium channel opening activity in isolated human bladder strips (25 mM KCl contracted)
Protocol: Human bladders were obtained from women greater than 45 years old. The human tissue was obtained from the Anatomic Gift Foundation, Phoenix AZ. Human tissue was received via overnight delivery on wet ice placed into Krebs Ringer bicarbonate solution (composition, mM: NaCl, 120; NaHCO3, 20; dextrose, 11; KCl, 4.7; 20 CaC′2, 2.5; MgSO4, 1.5; KH2PO4, 1.2; K2EDTA, 0.01, equilibrated with 5% C02/95% 02 pH 7.4 at 37 ° C.). Propranolol (0.004 mM) was included in all of the assays to block […]. The trigonal and dome portions were discarded. Strips 3-5 mm wide and 20 mm long were prepared from the remaining tissue cut in a circular fashion. The mucosal layer was removed. For the human detrusor strips the tissues were contracted 25 with 25 mM KCl which produced a steady state tension of approximately 400 centigrams. […]
After a 60 minute rinsing period, a concentration response curve (cumulative) was 30 generated for the test agonist in the same fashion as that used for the control agonist P1075. The maxximal efficacies of the compounds (expressed as % relative to P1075) are reported. […] Agonist potencies were also expressed as an index relative to PI1075. The index was calculated by dividing the ED50 for P1075 by the ED50 for the test agonist in a given tissue. […]

[5] = maximal efficacy relative to P1075, field stimulation 0.05Hz, 0.5 milli-seconds at 20 volts

Compound	MHP in GPB Cells Maximal Response (% P1075) [1]	Landrace Pig Bladder Index [2]	Landrace Pig Bladder Efficacy (% P1075) [2, 5]	Landrace Pig Bladder pD2 [2]	pEC50 [1]	further results
8-(3-bromo-4-fluorophenyl)-6-trifluoromethyl-5,8-dihydrothiopyrano[3 .2-b]pyridine, 1,1-dioxide [Example 159]	100 % P1075					
O=C1CCCC2=C1C(c1cccc(Br)c1)C1=C(CCCS1(=O)=O)N2 (stereo not shown) [Example 8, 10-(3-bromophenyl)-3,4,6,7,8,10-hexahydro-2H-thiopyrano [3,2-b]quinolin-9(5H)-one, 1,1-dioxide]	100 % P1075	0.025	95 % P1075	5.0	5.60	pEC50 [3]: 5.12; MHP in A10 Cells Maximal Response (% P1075) [3]: 66 % P1075
O=C1CCCC2=C1C(c1cccc(F)c1)C1=C(CCCS1(=O)=O)N2 (stereo not shown) [Example 11, 10-(3-fluorophenyl)-3,4,6,7,8,10-hexahydro-2H-thionyrano [3,2-b]quinolin-9(5H)-one, 1,1-dioxide]	29 % P1075	0.0021	100 % P1075	4.1	4.70	pEC50 [3]: 4.96; MHP in A10 Cells Maximal Response (% P1075) [3]: 42 % P1075
O=C1CCCC2=C1C(c1ccc(Cl)c([N+](=O)[O-])c1)C1=C(CCCS1(=O)=O)N2 (stereo not shown) [Example 19, 10-(4-chloro-3-nitrolphenyl)-3,4,6,7,8,10-hexahydro-2H-thiopyrano [3,2-b]quinolin-9(5H)-one, 1,1-dioxide]		0.13		6.0		Emax ([4]; human, maximal efficacy relative to P1075, detrusor strips contracted with 25 mM KCl): 100%; Emax ([2]; pig, maximal efficacy relative to P1075, field stimulation 0.05Hz, 0.5 milli-seconds at 20 volts): 94%
O=S1(=O)CCCC2=C1C(c1ccc(F)c(Br)c1)C1=C(CCCS1(=O)=O)N2 [Example 54, 10-(3-bromo-4-fluorophenyl)-3,4,6,7,8,10-hexahydro-2H,5H-dithiopyrano [3,2-b:2′,3′-e]pyridine, 1,1,9,9-tetraoxide]	107 % P1075 and 133 % P1075	0.015	89 % P1075	4.9		
CC1(C)CCC2=C(C1=O)C(c1cccc([N+](=O)[O-])c1)C1=C(CCS1(=O)=O)N2 (stereo not shown) [Example 189, 7,7-dimethyl-9-(3-nitrophenyl)-2,3,5,6,7,,9-hexahydrothieno[3.2-b]guinolin-8(4H)-one 1,1-dioxide]	51 % P1075				5.00	
CC1(C)CCC2=C(C1=O)C(c1cc(Cl)cc(Br)c1O)C1=C(CCS1(=O)=O)N2 (stereo not shown) [Example 199, 9-(3-bromo-5-chloro-2-hydroxyphenyl)-7,7-dimethyl-2,3.5.6,7,9-hexahydrothieno[3.2-b]quinolin-8(4H)-one 1,1-dioxide]	12 % P1075				< 5.00	
CC1(C)CCC2=C(C1=O)C(c1cc(Br)c(O)c(Br)c1)C1=C(CCS1(=O)=O)N2 (stereo not shown) [Example 207]	92 % P1075				5.92	
CCC(C)(C)N=C(NC#N)Nc1cccnc1 [Example P1075, reference compound]						relaxation of human detrusor strips ([4]; control agonist, 25 mM KCl contracted): complete relaxation; effect on stimulated twitch of pig bladder strips ([2]; control agonist, concentration range of 10-9 to 10-′M, 1/2 log increments): completely eliminated the stimulated twitch
